Results reported in US9000029B2, “Proline sulfonamide derivatives as orexin receptor antagonists” (Actelion Pharmaceuticals Ltd., priority 2010, dated 2015).

Assays:
[1] = system: F344 rats; experiment: Fear-potentiated startle and forepaw grip strength; assay type: in vivo, rat; conditions: 100 and 300 mg/kg p.o.
Text: 4) Effects of Compound of Example 26 on Fear-Potentiated Startle
The fear-potentiated startle (FPS) paradigm is a model of conditioned fear [Fendt M et al., Neuroscience Biobehav Rev. 1999, 23, 743-760]. Rats can be trained to associate an initially neutral, soon-to-be conditioned stimulus (CS; e.g., light) with an aversive, unconditioned stimulus (US; e.g., foot shock). When tested after training for their startle reflex response to brief (ms) noise bursts in the absence (no-CS) vs. the presence of the CS, rats generally show greater startle amplitudes during the presence of the CS which now serves as a predictor of shock. In humans a similar training procedure can be implemented and a FPS response can also be evoked in the presence of a shock-predicting CS.
Conditioned fear models including FPS mimic in particular the response to specific threats. […] Rather the compound may reduce those startle reactions as a consequence of reduced fear of the shock-context or reduced fear of the slightly aversive startle-eliciting noise pulses per se.
Male F344 rats were trained for two consecutive days (conditioning phase) to associate a light-stimulus with a foot shock. On the following day they were tested for their response to startle-eliciting noise stimuli which were delivered randomly under light (CS) or dark (no-CS) conditions. Two hours before the test rats were treated with one dose of compound of example 26 (0, 30, 100, 300 mg/kg p.o.). Average startle responses under light (CS) [FIG. 3 A)] and dark conditions (no-CS) [FIG. 3 B)] during the test day were measured and recorded as an electric signal (in mV). Following startle testing, rats underwent an additional forepaw grip strength (in g) [FIG. 3 C)] test to control for potential myorelaxant effects of the compound (dosed at 0, 30, 100, 300 mg/kg p.o.).

[2] = system: Sprague Dawley rats; experiment: Morphine-induced locomotor sensitization; assay type: in vivo, rat; conditions: 100 mg/kg orally two hours before morphine 10 mg/kg i.p.
Text: 2) Effects on Morphine-Induced Locomotor Sensitization
Repeated administration of psychostimulants or opiates across various species including rodents causes the development of “reverse tolerance” known as sensitization. The term sensitization refers to an increase in a response (here locomotion) after the repeated occurrence of the stimulus (drug administration) that promoted the aforementioned response. The increased sensitivity to the locomotor stimulating effect of such drugs (behavioural sensitization) is believed to be relevant to the psychopathology, neurotoxicity, addiction and to the craving that develop in humans abusing psychostimulants or opiates [Vanderschuren L J M J et al., in Self D W, Staley J K (eds.) “Behavioral Neuroscience of Drug Addiction”, Current Topics in Behavioral Neurosciences 3 (2009), 179-195].
Sensitization to the locomotor effects of drugs of abuse is believed to reflect sensitization to the rewarding effects of these agents. For instance, previous drug experience has been reported to increase the probability that animals will self-administer the drug later on. […]
16 male Sprague Dawley rats were injected with morphine (10 mg/kg i.p.) and placed immediately afterwards in an open field arena for 45 min. Total distance moved (in cm) was recorded via video-tracking. […]

Question: What does the source list for COc1ccc(S(=O)(=O)N2CCC[C@H]2C(=O)Nc2cc(C)cc(C)c2)cc1 [Example 26, (S)-1-(4-Methoxy-benzenesulfonyl)-pyrrolidine-2-carboxylic acid (3,5-dimethyl-phenyl)-amide]?
Answer: forepaw grip strength (myorelaxant effects) [1]: without affecting; fear-potentiated startle response under CS conditions ([1]; two hours before test): significantly reduced; startle response under no-CS conditions ([1]; two hours before test): significantly reduced; locomotor sensitization in response to the 5th injection of morphine [2]: completely abolished
